Test results reported in US9540325B2, “N1-cyclic amine-N5-substituted phenyl biguanide derivatives, methods of preparing the same and pharmaceutical composition comprising the same” (Immunomet Therapeutics, Inc., priority 2011, dated 2017).

Tests used:
HCT116 cells = experiment: Measurement of effect of inhibiting cancer cell proliferation (MTT); type: cell-based, human; settings: Homo sapiens; for inhibition at 100 µM: HCT-116, 100 μM, 48 hours, read-out: Cell Growth Inhibition (%) at 100 μM; for GI50: HCT-116, 48 h
Excerpt: HCT116 cells derived from human colorectal cancer (commercially available from the Korean Cell Line Bank) were used, and the effect of inhibiting cancer cell proliferation of the biguanide derivative was confirmed by measuring the concentration value (cell growth inhibition concentration, GIC50) at which cell growth was inhibited by 50% using a 3-(4,5-dimethylthiazol-2-yl)-2,5-diphenyltetrazolium bromide (MTT) reagent.
First, HCT116 cells were put on a 96-well plate and cultured in a DMEM medium containing 10% fetal bovine serum for 16 hours so that the cellcount in each well was approximately 5,000. Subsequently, to obtain the GIC50 value of each compound, culture media were treated with 100 μM, 25 μM, 6.25 μM, 1.56 μM or 0.39 μM of the compound, and then cultured for 48 hours. Metformin hydrochloride was used as the control, and the culture media were treated with 25, 12.5, 2.5, 0.5, 0.1 mM metformin hydrochloride, and then tested in the same manner as described in the derivatives synthesized in the examples. In order to determine whether the cells survived after treatment with the compounds, MTT was added to the culture media which were then cultured for another 3 hours. Formed formazane crystals were dissolved using dimethyl sulfoxide (DMSO), and the absorbance of the resulting solution was measured at 560 nm. After the 48-hour culture, […] was indicated as cell viability (%) according to each treated concentration. A cell viability curve graph was plotted and the concentration (GIC50) value of the compound at which the growth was inhibited by 50% was calculated to confirm the inhibition effect of cancer cell proliferation. Also, the cell growth viability (%) when the concentration of the treated biguanide derivative and the metformin hydrochloride as the control were 100 μM was shown.

AMPKα = experiment: Measurement of AMPK activation effect (AMPKα Thr172 phosphorylation immunoassay) in MCF7 cells; type: cell-based, human; settings: 24 hours; for AMPK activation effect at 10 μM (%) / AMPK activation effect at 50 μM (%): relative to untreated cells; for AMPK activation effect AC150: concentration at which AMPK activation reached 150%
Protocol: MCF7 cells derived from human breast cancer cells (commercially available from the Korean Cell Line Bank) were used, and the AMPK activation effect of the biguanide derivative was confirmed using an AMPKα immunoassay kit (Invitrogen, Catalog No. KHO0651).
MCF7 cells were cultured in a DMEM medium supplemented with 10% fetal bovine serum. Thereafter, the cultured MCF7 cells were put into a 6-well plate with approximately 5×10^5 cells per well and cultured in an incubator supplied with 5% CO2. Culture media were treated with the derivatives synthesized in the examples at contents of 5, 10 and 50 μM, and then cultured for 24 hours. Metformin hydrochloride was used as the control, and the culture media were treated with 0.05, 0.5, 1, 2, 5 and 10 mM metformin hydrochloride, and then tested in the same manner as described in the derivatives synthesized in the examples. Subsequently, the cells were lysed according to a method presented in the operation manual of the AMPKα immunoassay kit, and 20 μg of a cell lysate was then yielded through protein assay. Thereafter, the AMPK activation effect was obtained by determining the degree of phosphorylation of 172nd threonine residue (Thr172) of the AMPKα from the cell lysate according to the method presented in the operation manual of the AMPKα immunoassay kit. […] A curve graph showing AMPK activation according to the concentration of the treated compounds was plotted based on the obtained AMPKα activation results, the concentration (activation concentration 150, AC150) value of the compound whose AMPK activation reached 150% was calculated using a GraphPad Prism 5.0 program, and the degrees of AMPK activation were obtained when concentrations of the treated biguanide derivatives were 10 μM and 50 μM and the metformin hydrochloride was 50 μM

| Compound | melting point | inhibition at 100 µM (HCT116 cells) | GI50 (HCT116 cells) | AMPK activation effect at 10 μM (%) (AMPKα) | AMPK activation effect AC150 (AMPKα) | AMPK activation effect at 50 μM (%) (AMPKα) |
| --- | --- | --- | --- | --- | --- | --- |
| Cl.N=C(NC(=N)N1CCC1)Nc1ccc(OC(F)(F)F)c(Cl)c1 [Example 55, N1-azetidine-N5-(3-chloro-4-trifluoromethoxy)phenyl biguanide hydrochloride] | 254 to 255 °C | 101% | 7.3 µM | 342% | 2.6 µM | – |
| Cl.N=C(NC(=N)N1CCCCC1)Nc1cccc(Br)c1 [Example 7, N1-piperidine-N5-(3-bromo)phenyl biguanide hydrochloride] | 263 to 264 °C | 97.2% | 7 µM | 526% | 0.9 µM | – |
| Cl.N=C(NC(=N)N1CCCCC1)Nc1c(F)cc(F)cc1F [Example 69, N1-piperidine-N5-(2,4,6-trifluoro)phenyl biguanide hydrochloride] | 243 to 244 °C | 21.5% | > 100 µM | 131% | 42.0 µM | 156% |
| Cl.N=C(NC(=N)N1CCCC1)Nc1ccc(Cl)c(Cl)c1 [Example 63, N1-pyrrolidine-N5-(3,4-dichloro)phenyl biguanide hydrochloride] | 282 to 283 °C | 97.6% | 8.7 µM | 261% | 6.2 µM | – |
| Cl.N=C(NC(=N)N1CCCCC1)Nc1cccc(CO)c1 [Example 12, N1-piperidine-N5-(3-hydroxymethyl)phenyl biguanide hydrochloride] | 225 to 227 °C | 17.6% | > 100 µM | 107% | >50 µM | 149% |
| Cl.N=C(NC(=N)N1CCCCC1)Nc1cccc(C(F)(F)F)c1 [Example 24, N1-piperidine-N5-(3-trifluoromethyl)phenyl biguanide hydrochloride] | 264 to 265 °C | 97.6% | 6.9 µM | 388% | 2.6 µM | – |
| CSc1ccc(NC(=N)NC(=N)N2CCCCC2)cc1.Cl [Example 43, N1-piperidine-N5-(4-methylthio)phenyl biguanide hydrochloride] | 264 to 265 °C | 98% | 37.1 µM | 239% | 4.1 µM | 547% |
| Cl.N=C(NC(=N)N1CCCCC1)Nc1ccc(-c2nnn[nH]2)cc1 [Example 40, N1-piperidine-N5-(4-(1H-tetrazole-5-yl))phenyl biguanide hydrochloride] | 241 to 242 °C | 0.9% | > 100 µM | 41% | >50 µM | 55% |
| Cl.N=C(NC(=N)N1CCCCC1)Nc1ccc(F)cc1 [Example 14, N1-piperidine-N5-(4-fluoro)phenyl biguanide hydrochloride] | 269 to 270 °C | 49.7% | > 100 µM | 204% | 4.0 µM | 429% |
| Cl.N=C(NC(=N)N1CCCCC1)Nc1ccc(OC(F)(F)F)c(Cl)c1 [Example 57, N1-piperidine-N5-(3-chloro-4-trifluoromethoxy)phenyl biguanide hydrochloride] | 261 to 262 °C | 96.3% | 2.6 µM | 345% | 3.2 µM | – |
| CCc1cccc(NC(=N)NC(=N)N2CCCCC2)c1.Cl [Example 10, N1-piperidine-N5-(3-ethyl)phenyl biguanide hydrochloride] | 225 to 227 °C | 97.4% | 27.3 µM | 178% | 7.3 µM | 598% |
| CN1CCN(C(=N)NC(=N)Nc2ccc(OC(F)(F)F)cc2)CC1.Cl [Example 35, N1-(4-methyl)piperazine-N5-(4-trifluoromethoxy)phenyl biguanide hydrochloride] | 258 to 259 °C | 76.5% | 46.7 µM | 207% | 5.0 µM | 542% |
| Cl.N=C(NC(=N)N1CCCCC1)Nc1ccc(F)c(OC(F)(F)F)c1 [Example 50, N1-piperidine-N5-(4-fluoro-3-trifluoromethoxy)phenyl biguanide hydrochloride] | 260 to 261 °C | 97% | 3.9 µM | 127% | >50 µM | – |
| CS(=O)(=O)Nc1cccc(NC(=N)NC(=N)N2CCCCC2)c1.Cl [Example 41, N1-piperidine-N5-(3-methylsulfonamide)phenyl biguanide hydrochloride] | 251 to 253 °C | 18.8% | > 100 µM | 86% | >50 µM | 125% |
| Cl.N=C(NC(=N)N1CCCC1)Nc1cc(Br)cc(OC(F)(F)F)c1 [Example 66, N1-pyrrolidine-N5-(3-bromo-5-trifluoromethoxy)phenyl biguanide hydrochloride] | 241 to 242 °C | 97.6% | 6.8 µM | 521% | 5.0 µM | – |
| Cl.N=C(NC(=N)N1CCCCC1)Nc1ccc(F)c(C(F)(F)F)c1 [Example 46, N1-piperidine-N5-(4-fluoro-3-trifluoromethyl)phenyl biguanide hydrochloride] | 269 to 270 °C | 97% | 5.6 µM | 261% | 1.3 µM | – |
| Cl.N=C(NC(=N)N1CCCCC1)Nc1cccc(OC(F)(F)F)c1 [Example 29, N1-piperidine-N5-(3-trifluoromethoxy)phenyl biguanide hydrochloride] | 264 to 266 °C | 98% | 5.9 µM | 400% | 1.1 µM | – |
| Cl.N=C(NC(=N)N1CCCCC1)Nc1cccc(O)c1 [Example 11, N1-piperidine-N5-(3-hydroxy)phenyl biguanide hydrochloride] | 210 to 212 °C | 29.7% | > 100 µM | 127% | >50 µM | 127% |
| Cl.N=C(NC(=N)N1CCCCC1)Nc1ccccc1F [Example 15, N1-piperidine-N5-(2-fluoro)phenyl biguanide hydrochloride] | 155 to 157 °C | 39.5% | > 100 µM | – | >50 µM | 100% |
| Cl.N=C(NC(=N)N1CCCC1)Nc1cccc(C(F)(F)F)c1 [Example 23, N1-pyrrolidine-N5-(3-trifluoromethyl)phenyl biguanide hydrochloride] | 286 to 287 °C | 97.6% | 38.9 µM | 199% | 4.4 µM | 578% |
